Experimental data reported in US20180127465A1 (priority 2015, published 2018).

Legend:
primary cortical neurons [1] = format: cell-based
primary cortical neurons [2] = format: cell-based; remark: listed apart in the source
[3] = system: mouse middle cerebral artery occlusion (MCAO) stroke model; conditions: in vivo
[4] = system: mouse middle cerebral artery occlusion (MCAO) stroke model; conditions: in vivo; remark: listed apart in the source
primary cortical neurons [5] = format: cell-based; remark: listed apart in the source
primary cortical neurons [6] = format: cell-based; remark: listed apart in the source

Row | SMILES | neuronal cell death (LDH), in words (primary cortical neurons [1]) | less LDH release (primary cortical neurons [2]) [%] | relative neuronal death (LDH), in words (primary cortical neurons [2]) | improvement of neurological score [3] [%] | Horizontal Activity [4] | No. of Movements [4] | Rest Time [4] [s] | Stereotypy Counts [4] | Total Distance [4] [CM] | Vertical Activity [4] | relative neuronal survival (MTT), in words (primary cortical neurons [5]) | ROS production, in words (primary cortical neurons [6])
1 | C[C@@H](NC(=O)[C@@H](N)Cc1ccc(O)cc1)C(=O)NCC(=O)N[C@@H](Cc1ccccc1)C(=O)NNC(=O)[C@H](Cc1ccccc1)NC(=O)CNC(=O)[C@@H](C)NC(=O)[C@@H](N)Cc1ccc(O)cc1 [biphalin] | significantly decreased neuronal cell death | 18.4 | significantly decreased relative neuronal death | 25.5 | 760 ± 75 | 42 ± 6 | 240 ± 7 | 390 ± 46 | 650 ± 81 | 28 ± 3 | significantly improved relative neuronal survival | –
2 | O=C1CC[C@@]2(O)[C@H]3Cc4ccc(O)c5c4[C@@]2(CCN3CC2CC2)[C@H]1O5 [NTX, naltrexone] | No statistical significant difference | – | – | – | – | – | – | – | – | – | – | did not show significant decrease in ROS production
